Source: PubChem BioAssay (NCI)
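Following 48 hours of exposure in 96-well plates, responses at five concentrations were used to interpolate endpoints linearly. TGI denotes the concentration required for complete inhibition of growth.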

Assays:
Test in all cases: NCI tumour cell line growth inhibition, 48 h
HCC-2998 colon = test system: HCC-2998 colon
OVCAR-4 ovarian = test system: OVCAR-4 ovarian
OVCAR-5 ovarian = test system: OVCAR-5 ovarian
COLO 205 colon = test system: COLO 205 colon
SK-MEL-5 melanoma = test system: SK-MEL-5 melanoma
CCRF-CEM leukemia = test system: CCRF-CEM leukemia
NCI/ADR-RES ovarian = test system: NCI/ADR-RES ovarian
RPMI-8226 leukemia = test system: RPMI-8226 leukemia
OVCAR-3 ovarian = test system: OVCAR-3 ovarian
MDA-MB-435 = test system: MDA-MB-435
MDA-N = test system: MDA-N
SF-268 CNS = test system: SF-268 CNS
UACC-62 melanoma = test system: UACC-62 melanoma
HOP-92 NSCLC = test system: HOP-92 NSCLC
SN12C renal = test system: SN12C renal
SK-MEL-2 melanoma = test system: SK-MEL-2 melanoma
CAKI-1 renal = test system: CAKI-1 renal
DU-145 prostate = test system: DU-145 prostate
ACHN renal = test system: ACHN renal
TK-10 renal = test system: TK-10 renal
PC-3 prostate = test system: PC-3 prostate
A498 renal = test system: A498 renal
786-0 renal = test system: 786-0 renal
SK-OV-3 ovarian = test system: SK-OV-3 ovarian
K-562 leukemia = test system: K-562 leukemia
SK-MEL-28 melanoma = test system: SK-MEL-28 melanoma
MDA-MB-231 breast = test system: MDA-MB-231 breast
NCI-H226 lung = test system: NCI-H226 lung
MCF7 breast = test system: MCF7 breast
NCI-H522 lung = test system: NCI-H522 lung
U251 CNS = test system: U251 CNS
SNB-19 CNS = test system: SNB-19 CNS
LOX IMVI melanoma = test system: LOX IMVI melanoma
NCI-H460 lung = test system: NCI-H460 lung
SW-620 colon = test system: SW-620 colon
SNB-75 CNS = test system: SNB-75 CNS
HCT-116 colon = test system: HCT-116 colon
NCI-H23 lung = test system: NCI-H23 lung
KM12 colon = test system: KM12 colon
BT-549 breast = test system: BT-549 breast
MOLT-4 leukemia = test system: MOLT-4 leukemia
EKVX NSCLC = test system: EKVX NSCLC
OVCAR-8 ovarian = test system: OVCAR-8 ovarian
SF-539 CNS = test system: SF-539 CNS
HCT-15 colon = test system: HCT-15 colon
M14 melanoma = test system: M14 melanoma
UACC-257 melanoma = test system: UACC-257 melanoma
IGROV1 ovarian = test system: IGROV1 ovarian
MALME-3M melanoma = test system: MALME-3M melanoma
A549 NSCLC = test system: A549 NSCLC
UO-31 renal = test system: UO-31 renal
HT29 colon = test system: HT29 colon
HOP-62 NSCLC = test system: HOP-62 NSCLC
SF-295 CNS = test system: SF-295 CNS
SR leukemia = test system: SR leukemia
HS 578T breast = test system: HS 578T breast
RXF 393 renal = test system: RXF 393 renal
T-47D breast = test system: T-47D breast
HL-60(TB) leukemia = test system: HL-60(TB) leukemia

CCC/C(Cl)=N\OC(=O)Nc1ccc(F)c([N+](=O)[O-])c1
TGI (HCC-2998 colon): 31.3 µM
TGI (OVCAR-4 ovarian): 28.9 µM
TGI (OVCAR-5 ovarian): 44.4 µM
TGI (COLO 205 colon): 12 µM
TGI (SK-MEL-5 melanoma): 35.2 µM
TGI (CCRF-CEM leukemia): > 100 µM
TGI (NCI/ADR-RES ovarian): 36.6 µM
TGI (RPMI-8226 leukemia): > 100 µM
TGI (OVCAR-3 ovarian): 28.9 µM
TGI (MDA-MB-435): 30.4 µM
TGI (MDA-N): 47.6 µM
TGI (SF-268 CNS): 29.2 µM
TGI (UACC-62 melanoma): 37.7 µM
TGI (HOP-92 NSCLC): 31.7 µM
TGI (SN12C renal): 72.2 µM
TGI (SK-MEL-2 melanoma): 27.3 µM
TGI (CAKI-1 renal): 15.5 µM
TGI (DU-145 prostate): 28.6 µM
TGI (ACHN renal): 18.1 µM
TGI (TK-10 renal): 32 µM
TGI (PC-3 prostate): 28.5 µM
TGI (A498 renal): 48.4 µM
TGI (786-0 renal): 40 µM
TGI (SK-OV-3 ovarian): 78.9 µM
TGI (K-562 leukemia): > 100 µM
TGI (SK-MEL-28 melanoma): 34.2 µM
TGI (MDA-MB-231 breast): 36.8 µM
TGI (NCI-H226 lung): 55.7 µM
TGI (MCF7 breast): 75.5 µM
TGI (NCI-H522 lung): 4.3 µM
TGI (U251 CNS): 37.3 µM
TGI (SNB-19 CNS): 28.5 µM
TGI (LOX IMVI melanoma): 66.8 µM
TGI (NCI-H460 lung): 34.9 µM
TGI (SW-620 colon): 39.6 µM
TGI (SNB-75 CNS): 33 µM
TGI (HCT-116 colon): > 100 µM
TGI (NCI-H23 lung): 28.1 µM
TGI (KM12 colon): 32.7 µM
TGI (BT-549 breast): 22.4 µM
TGI (MOLT-4 leukemia): 11.2 µM
TGI (EKVX NSCLC): 29.9 µM
TGI (OVCAR-8 ovarian): 31.3 µM
TGI (SF-539 CNS): 42.9 µM
TGI (HCT-15 colon): 34.8 µM
TGI (M14 melanoma): 30.4 µM
TGI (UACC-257 melanoma): 34.2 µM
TGI (IGROV1 ovarian): 28.7 µM
TGI (MALME-3M melanoma): 22.8 µM
TGI (A549 NSCLC): 66.4 µM
TGI (UO-31 renal): 26.6 µM
TGI (HT29 colon): 45.3 µM
TGI (HOP-62 NSCLC): 34.9 µM
TGI (SF-295 CNS): > 100 µM

COc1ccc(S(=O)(=O)Nc2ccc(-c3csc(N4C(=O)/C(=C/c5ccccc5)N=C4c4ccccc4)n3)cc2)cc1Cl
TGI (OVCAR-4 ovarian): 99.4 µM
TGI (OVCAR-5 ovarian): > 100 µM
TGI (COLO 205 colon): > 100 µM
TGI (SK-MEL-5 melanoma): > 100 µM
TGI (CCRF-CEM leukemia): > 100 µM
TGI (NCI/ADR-RES ovarian): > 100 µM
TGI (OVCAR-3 ovarian): > 100 µM
TGI (MDA-MB-435): > 100 µM
TGI (MDA-N): > 100 µM
TGI (SR leukemia): > 100 µM
TGI (SF-268 CNS): > 100 µM
TGI (UACC-62 melanoma): > 100 µM
TGI (HOP-92 NSCLC): 69.7 µM
TGI (SN12C renal): > 100 µM
TGI (SK-MEL-2 melanoma): > 100 µM
TGI (CAKI-1 renal): > 100 µM
TGI (DU-145 prostate): 86.8 µM
TGI (ACHN renal): > 100 µM
TGI (TK-10 renal): > 100 µM
TGI (HS 578T breast): > 100 µM
TGI (PC-3 prostate): > 100 µM
TGI (A498 renal): 48.7 µM
TGI (786-0 renal): > 100 µM
TGI (SK-OV-3 ovarian): > 100 µM
TGI (K-562 leukemia): > 100 µM
TGI (RXF 393 renal): 73.3 µM
TGI (SK-MEL-28 melanoma): > 100 µM
TGI (MDA-MB-231 breast): 46.2 µM
TGI (NCI-H226 lung): > 100 µM
TGI (MCF7 breast): > 100 µM
TGI (NCI-H522 lung): > 100 µM
TGI (U251 CNS): 78 µM
TGI (SNB-19 CNS): > 100 µM
TGI (LOX IMVI melanoma): > 100 µM
TGI (NCI-H460 lung): > 100 µM
TGI (SW-620 colon): > 100 µM
TGI (SNB-75 CNS): > 100 µM
TGI (HCT-116 colon): > 100 µM
TGI (NCI-H23 lung): 54.8 µM
TGI (KM12 colon): > 100 µM
TGI (MOLT-4 leukemia): > 100 µM
TGI (OVCAR-8 ovarian): > 100 µM
TGI (SF-539 CNS): > 100 µM
TGI (HCT-15 colon): 49.5 µM
TGI (M14 melanoma): 71.9 µM
TGI (UACC-257 melanoma): > 100 µM
TGI (IGROV1 ovarian): > 100 µM
TGI (MALME-3M melanoma): > 100 µM
TGI (A549 NSCLC): > 100 µM
TGI (T-47D breast): 61.9 µM
TGI (UO-31 renal): 34.1 µM
TGI (HT29 colon): > 100 µM
TGI (HOP-62 NSCLC): > 100 µM
TGI (SF-295 CNS): > 100 µM
TGI (HL-60(TB) leukemia): 87.4 µM

CC(C)(C)OC(=O)N1Cc2cc(O)ccc2C[C@H]1C(=O)O
TGI (HCC-2998 colon): > 100 µM
TGI (OVCAR-4 ovarian): > 100 µM
TGI (OVCAR-5 ovarian): > 100 µM
TGI (COLO 205 colon): > 100 µM
TGI (SK-MEL-5 melanoma): > 100 µM
TGI (CCRF-CEM leukemia): > 100 µM
TGI (NCI/ADR-RES ovarian): > 100 µM
TGI (OVCAR-3 ovarian): > 100 µM
TGI (MDA-MB-435): > 100 µM
TGI (MDA-N): > 100 µM
TGI (SR leukemia): > 100 µM
TGI (SF-268 CNS): > 100 µM
TGI (UACC-62 melanoma): > 100 µM
TGI (HOP-92 NSCLC): > 100 µM
TGI (SN12C renal): > 100 µM
TGI (SK-MEL-2 melanoma): > 100 µM
TGI (CAKI-1 renal): > 100 µM
TGI (DU-145 prostate): > 100 µM
TGI (ACHN renal): > 100 µM
TGI (TK-10 renal): > 100 µM
TGI (HS 578T breast): > 100 µM
TGI (PC-3 prostate): > 100 µM
TGI (A498 renal): > 100 µM
TGI (786-0 renal): > 100 µM
TGI (SK-OV-3 ovarian): > 100 µM
TGI (K-562 leukemia): > 100 µM
TGI (RXF 393 renal): > 100 µM
TGI (SK-MEL-28 melanoma): > 100 µM
TGI (MDA-MB-231 breast): > 100 µM
TGI (NCI-H226 lung): > 100 µM
TGI (MCF7 breast): > 100 µM
TGI (NCI-H522 lung): > 100 µM
TGI (U251 CNS): > 100 µM
TGI (SNB-19 CNS): > 100 µM
TGI (LOX IMVI melanoma): > 100 µM
TGI (NCI-H460 lung): > 100 µM
TGI (SW-620 colon): > 100 µM
TGI (SNB-75 CNS): > 100 µM
TGI (HCT-116 colon): > 100 µM
TGI (NCI-H23 lung): > 100 µM
TGI (KM12 colon): > 100 µM
TGI (MOLT-4 leukemia): > 100 µM
TGI (EKVX NSCLC): > 100 µM
TGI (OVCAR-8 ovarian): > 100 µM
TGI (SF-539 CNS): > 100 µM
TGI (HCT-15 colon): > 100 µM
TGI (UACC-257 melanoma): > 100 µM
TGI (IGROV1 ovarian): > 100 µM
TGI (MALME-3M melanoma): > 100 µM
TGI (A549 NSCLC): > 100 µM
TGI (T-47D breast): > 100 µM
TGI (HT29 colon): > 100 µM
TGI (HOP-62 NSCLC): > 100 µM
TGI (SF-295 CNS): > 100 µM
TGI (HL-60(TB) leukemia): > 100 µM
